# Test results from US12371400B2, “Cathepsin inhibitors” (ACADEMISCH ZIEKENHUIS LEIDEN (H.O.D.N. LUMC), priority 2017, dated 2025).
# pKi: −log10 of the molar value.
# Tests used:
# [1] = phase III clinical trials; cited from earlier work
# [2] = in vivo; cited from earlier work
# CatK = biological target: T1, CatK (Homo sapiens, UniProt P43235); conditions: cited from earlier work
# T1 sequence (P43235 115-329): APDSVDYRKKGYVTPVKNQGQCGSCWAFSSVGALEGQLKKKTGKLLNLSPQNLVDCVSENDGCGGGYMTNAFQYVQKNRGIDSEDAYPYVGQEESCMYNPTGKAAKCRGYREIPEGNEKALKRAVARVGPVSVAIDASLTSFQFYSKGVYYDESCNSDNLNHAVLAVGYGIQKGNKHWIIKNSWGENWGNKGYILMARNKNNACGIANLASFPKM
# hCatK = biological target: T2, hCatK (Homo sapiens, UniProt P43235); experiment: Kinetic evaluation of covalent inhibitors on purified hCatK; type: biochemical; conditions: 100 pM hCatK, 4 μM Z-FR-AMC, 26° C., reaction started by addition of CatK; for pKi: read-out: Kl; for kinact: read-out: kinact (converted)
# T2 sequence (P43235 115-329): T1 sequence (P43235 115-329)
# Procedure: The reaction kinetics of irreversible covalent inhibitor compounds may be assed in the following manner. Inhibitors (200 nL, 100× final concentration in DMSO) were diluted in reaction buffer (10 μL). Fluorogenic substrate (5 μL, 4× final concentration) was added and the reaction was started by addition of Cathepsin (5 μL, 4× final concentration). Fluorescence intensity was measured every 2 minutes for 60 minutes and fitted to equation I to obtain the Kobs. The obtained values were plotted against the inhibitor concentration and fitted to equation II to obtain kinetic parameters Kinact (rate of covalent bond formation) and Ki.
# Kinetic evaluation of irreversible covalent inhibitors was conducted by following the progress curve of inhibition when the hydrolysis of substrate is started by addition of the enzyme (instead of incubating the protease with the inhibitor prior to addition of the substrate). From this curve the maximum rate of covalent bond formation (Kinact) could be determined (Table 4).
kinact/Kl (hCatK),pKi (hCatK),kinact (hCatK),Structure (SMILES),stroke risk [1],half-life [2],selectivity for CatK versus other Cathepsins (CatK)
,,,"CC(C)(F)C[C@H](N[C@@H](c1ccc(-c2ccc(S(C)(=O)=O)cc2)cc1)C(F)(F)F)C(=O)NC1(C#N)CC1 [ODN, (S)—N-(1-cyanocyclopropyl)-4-fluoro-4-methyl-2-(((S)-2,2,2-trifluoro-1-(4′-(methylsulfonyl)-[1,1′-biphenyl]-4-yl)ethyl)amino)pentanamide, reference compound]",increased stroke risk,66 to 93 h,high selectivity
883 M⁻¹ s⁻¹,6.67,0.000183 s⁻¹,"C#CCNC(=O)[C@H](CC(C)(C)F)N[C@@H](c1ccc(-c2ccc(S(C)(=O)=O)cc2)cc1)C(F)(F)F [Compound 4, (S)-4-fluoro-4-methyl-N-(prop-2-yn-1-yl)-2-(((S)-2,2,2-trifluoro-1-(4′-(methylsulfonyl)-[1,1′-biphenyl]-4-yl)ethyl)amino)pentanamide]",,,
250 M⁻¹ s⁻¹,5.49,0.000783 s⁻¹,"C#CC(C)NC(=O)[C@H](CC(C)(C)F)N[C@@H](c1ccc(-c2ccc(S(C)(=O)=O)cc2)cc1)C(F)(F)F (mixture of isomers) [Compound 5, (S)—N—((R/S)-but-3-yn-2-yl)-4-fluoro-4-methyl-2-(((S)-2,2,2-trifluoro-1-(4′-(methylsulfonyl)-[1,1′-biphenyl]-4-yl)ethyl)amino)pentanamide]",,,
